From patent US7968710B2, “Prokineticin 1 receptor antagonists” (Janssen Pharmaceutica NV, priority 2005, dated 2011) come the findings set out here.

Values joined by “and” are separate entries in the source; they are usually repeats but may differ in a detail not shown here. Equal entries are not always repeated.

One may read the IC50 as the midpoint of a concentration-inhibition curve.

One test has as its target PK1 receptor (Rattus norvegicus, UniProt Q8R416). In words: Inhibition of PK1-evoked increase in Isc by PK1 receptor antagonists in Ussing-type ion flux chambers. The following applies: test compound 1 μM, 15 min incubation, PK1 10 and 100 nM cumulative. From the text:
Methodology. The basic methodology for Ussing-type ion flux chambers used in these studies was the same as that described in detail above with the following modifications to the experimental protocol.

Test [1] deals with T1, HEK 293 GPR73 (prokineticin 1 receptor) expressing cells (Homo sapiens, UniProt Q8TCW9).
T1 construct: expressed in transfected cells; host or cells: HEK 293
T1 sequence (Q8TCW9 whole entry): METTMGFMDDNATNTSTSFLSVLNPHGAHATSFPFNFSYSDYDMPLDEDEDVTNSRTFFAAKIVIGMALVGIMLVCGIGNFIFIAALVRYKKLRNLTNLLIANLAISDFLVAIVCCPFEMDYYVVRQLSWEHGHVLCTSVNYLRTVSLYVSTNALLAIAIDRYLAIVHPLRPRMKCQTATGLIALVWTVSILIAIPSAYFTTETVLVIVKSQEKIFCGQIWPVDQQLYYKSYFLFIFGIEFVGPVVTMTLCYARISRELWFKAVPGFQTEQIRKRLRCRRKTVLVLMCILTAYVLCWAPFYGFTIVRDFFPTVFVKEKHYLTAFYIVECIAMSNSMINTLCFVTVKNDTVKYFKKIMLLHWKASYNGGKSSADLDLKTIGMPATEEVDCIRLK
In words: PK1 functional assay: screening for PK1 antagonists on the FLIPR (calcium mobilization). In kind it is cell-based. The following applies: HEK 293 GPR73 cells; for inhibition at 10 µM: HEK293, 10 μM compound, read-out: Ca^2+ Mobilization % Inh @10 μM; for IC50: PK1 ligand at EC50, read-out: Ca^2+ Mobilization IC50; for Ca^2+ Mobilization % Inh @10 μM: 10 μM compound. As to the method:
Screening Procedure for PK1 Antagonists on the Fluorometric Imaging Plate Reader (FLIPR)
At a time of 24 h prior to running the assay, in cell culture media (DMEM containing high Glucose and L-glutamine, 10% FBS, 1% Pen/Streptomycin, 1% Sodium Pyruvate, 20 mM HEPES, Zeocin 200 mg/L), 100 μL of 1.3*10^6/ml HEK 293 GPR73 (prokineticin 1 receptor) expressing cells were plated in a 96 well poly-d-lysine coated plate (Costar), and incubated at 37 C and 5% CO2. On the day in which the assay was run, the media was removed and 200 μL of 5× Calcium Plus Dye (Molecular Devices) which was previously resuspended with 200 mL of assay buffer [HBSS w/Ca^2+ and Mg^2+ w/o phenol red, 20 mM HEPES, 0.1% BSA, 10 mL probenecid (710 mg probenecid in 5 mL of 1N NaOH, to which was then added 5 mL HBSS containing 20 mM HEPES)] was added to each well of the 96-well plate. The plate was incubated at 37 C and 5% CO2 for 30 min in dark. The plate was removed and allowed to reach RT for 15 min in the dark. The assay was then run on the FLIPR. […] Baseline is described as the amount of relative fluorescence read when buffer alone is added to cells. Baseline was subtracted from all wells. Percent of control was calculated as follows: (Baseline subtracted well value is divided by baseline subtracted max value)*100. Percent inhibition is 100 minus the percent of control value.
IC50 values were calculated using GraphPad Prism.
(In general: A change in cytosolic calcium serves as a functional read-out for many receptors and channels.)

Test [2] relates to ileum mucosal tissues from PK1 receptor knock-out mice. In words: PK1-evoked Isc in ileum mucosal tissues from PK1 receptor knock-out mice. The following applies: exogenous PK1 peptide, PK1 receptor knock-out mice ileum mucosa.
The test system of the next test is rat ileal tissues. In words: Effect of PK1 on secretion and gut mucosal ion transport (short-circuit current, Ussing-type flux chamber).

PK1 receptor, sequence (Q8R416 whole entry): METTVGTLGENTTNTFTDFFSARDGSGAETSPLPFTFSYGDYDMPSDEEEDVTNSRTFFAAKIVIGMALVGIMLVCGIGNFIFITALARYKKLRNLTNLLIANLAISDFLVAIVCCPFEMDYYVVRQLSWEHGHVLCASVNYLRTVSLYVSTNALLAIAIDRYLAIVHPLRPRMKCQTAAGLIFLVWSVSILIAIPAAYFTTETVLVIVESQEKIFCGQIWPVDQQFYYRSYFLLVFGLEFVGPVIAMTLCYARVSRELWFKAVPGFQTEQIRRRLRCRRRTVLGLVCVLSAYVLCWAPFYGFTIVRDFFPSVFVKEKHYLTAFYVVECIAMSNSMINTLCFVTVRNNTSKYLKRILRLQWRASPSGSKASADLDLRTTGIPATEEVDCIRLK

In the case of `COc1ccc(Cn2c(NCCNC(=N)N)nc(=O)n(Cc3ccccc3)c2=O)cc1` [Cpd 2], at PK1 receptor, the “inhibition of the PK1 evoked increase in Isc” value is listed as “successfully achieved”.

With `N=C(N)NCCNc1nc(=O)n(Cc2ccccc2)c(=O)n1Cc1ccc([N+](=O)[O-])cc1` [Cpd 9], in test [1], the inhibition at 10 µM came out at 35% and the IC50 is over 10000 nM.

On to `COc1ccc(Cn2c(NCCONC(=N)N)nc(=O)n(Cc3ccccc3)c2=O)cc1` [Cpd 10], for which the “Ca^2+ Mobilization % Inh @10 μM” value in test [1] is reported as 33%.

Regarding `COc1ccc(Cn2c(NCCNC(=N)N)nc(=O)n(Cc3ccc(F)cc3)c2=O)cc1` [Cpd 17, N-{2-[5-(4-Fluoro-benzyl)-1-(4-methoxy-benzyl)-4,6-dioxo-1,4,5,6-tetrahydro-[1,3,5]triazin-2-ylamino]-ethyl}-guanidine], the “inhibition of the PK1 evoked increase in Isc” value at PK1 receptor is “successfully achieved”.

Take `COc1ccc(Cn2c(N[C@@H]3CCCC[C@H]3NC(=N)N)nc(=O)n(Cc3ccc(Cl)c(Cl)c3)c2=O)cc1` [Cpd 47]: in test [1], the inhibition at 10 µM stood at 101% and the concentration for half-maximal inhibition (IC50) stood at 57 nM.

Take `COc1ccc(Cn2c(NCCNC(=N)NC(C)C)nc(=O)n(Cc3ccc(Cl)c(Cl)c3)c2=O)cc1` [Cpd 58, N-{2-[5-(3,4-Dichloro-benzyl)-1-(4-methoxy-benzyl)-4,6-dioxo-1,4,5,6-tetrahydro-[1,3,5]triazin-2-ylamino]-ethyl}-N′-isopropyl-guanidine]: the “inhibition of the PK1 evoked increase in Isc” value at PK1 receptor is reported as “successfully achieved”. In addition, the “Ca^2+ Mobilization % Inh @10 μM” value in test [1] (10 µM) is 99% and 98%. Further, in test [1], the inhibition at 10 µM is 102%; the IC50 was 7 nM and 16 nM (2×).

As to `COc1ccc(Cn2c(NCCNC(=N)NCCc3ccccc3)nc(=O)n(Cc3ccc(Cl)c(Cl)c3)c2=O)cc1` [Cpd 65], in test [1], the “Ca^2+ Mobilization % Inh @10 μM” value came out at 88% and the IC50 was 485 nM.

Consider `COc1ccc(Cn2c(NCCNC(=N)Nc3ccc(C#N)cc3)nc(=O)n(Cc3ccc(F)cc3)c2=O)cc1` [Cpd 90, N-(4-Cyano-phenyl)-N′-{2-[5-(4-fluoro-benzyl)-1-(4-methoxy-benzyl)-4,6-dioxo-1,4,5,6-tetrahydro-[1,3,5]triazin-2-ylamino]-ethyl}-guanidine], for which, in test [1] (10 µM), the “Ca^2+ Mobilization % Inh @10 μM” value was 100% and 101%. In test [1], the inhibition at 10 µM was found to be 100%; the half-maximal inhibitory concentration (IC50) was 31 nM and 43 nM (2×).

In the case of `COc1ccc(Cn2c(NCCN(C(=N)N)c3ccccn3)nc(=O)n(Cc3ccc(F)cc3)c2=O)cc1` [Cpd 104, N-{2-[5-(4-Fluoro-benzyl)-1-(4-methoxy-benzyl)-4,6-dioxo-1,4,5,6-tetrahydro-[1,3,5]triazin-2-ylamino]-ethyl}-N-pyridin-2-yl-guanidine], the “Ca^2+ Mobilization % Inh @10 μM” value in test [1] (10 µM) was 99% and 102%. Besides, the IC50 in test [1] came out at 11 nM.

Turning to `COc1ccc(Cn2c(NCCNC(=N)NCCc3ccccn3)nc(=O)n(Cc3ccc(F)cc3)c2=O)cc1` [Cpd 105], in test [1], the “Ca^2+ Mobilization % Inh @10 μM” value came to 100% and the IC50 turned out to be 89 nM.

Turning to `[H]/N=C(\N)NCCNc1nc(=O)n(Cc2ccc(OC(C)(C)C)cc2)c(=O)n1Cc1ccc(OC)cc1` [Cpd 109], in test [1], the inhibition at 10 µM was found to be 99% and the IC50 amounted to 129 nM.

As for `COc1ccc(Cn2c(NCCNC(=N)Nc3ccccc3F)nc(=O)n(Cc3ccc(F)cc3)c2=O)cc1` [Cpd 118, N-{2-[5-(4-Fluoro-benzyl)-1-(4-methoxy-benzyl)-4,6-dioxo-1,4,5,6-tetrahydro-[1,3,5]triazin-2-ylamino]-ethyl}-N′-(2-fluoro-phenyl)-guanidine], the “Ca^2+ Mobilization % Inh @10 μM” value in test [1] (10 µM) is listed as 102%. Further, in test [1], the inhibition at 10 µM was found to be 98% and the IC50 was found to be 6 nM.

Take `COc1ccc(Cn2c(NCCNC(=N)N)nc(=O)n(CC3CCCC3)c2=O)cc1` [Cpd 124]: in test [1], the “Ca^2+ Mobilization % Inh @10 μM” value is 74% and the 50% inhibitory concentration (IC50) turned out to be 1560 nM.

In the case of `COc1ccc(Cn2c(NCCNC(=N)NC(=O)c3ccccc3)nc(=O)n(Cc3ccc(F)cc3)c2=O)cc1` [Cpd 134, N-Benzoyl-N′-{2-[5-(4-fluoro-benzyl)-1-(4-methoxy-benzyl)-4,6-dioxo-1,4,5,6-tetrahydro-[1,3,5]triazin-2-ylamino]-ethyl}-guanidine], in test [1], the “Ca^2+ Mobilization % Inh @10 μM” value is given as 97, 97%; the inhibition at 10 µM amounted to 97%; the half-inhibitory concentration (IC50) was 19 nM and 28 nM.

Take “N-{2-[5-Benzyl-1-(4-methoxy-benzyl)-4,6-dioxo-1,4,5,6-tetrahydro-[1,3,5]triazin-2-ylamino]-ethyl}-oxyguanidine [Cpd 27]”: in test [1], the “Ca^2+ Mobilization % Inh @10 μM” value came out at 55% and the half-inhibitory concentration (IC50) was found to be 1970 nM.

B1: PK1: Recombinant human prokineticin-1 expressed in HEK 293 cells, FLAG cleaved; mixture of full-length ligand and four C-terminal residue truncated product (protein, UniProt P58294 20-105, looked up)
Prokineticin-1: AVITGACERDVQCGAGTCCAISLWLRGLRMCTPLGREGEECHPGSHKVPFFRKRKHHTCPCLPNLLCSRFPDGRYRCSMDLKNINF
modifications: mixture with C-terminal 4-residue truncated form
notes: Recombinant human prokineticin-1 expressed in HEK 293 cells, FLAG cleaved; mixture of full-length ligand and four C-terminal residue truncated product
On to B1, for which the “change in Isc compared to wild-type littermates” value in test [2] is given as “failed to elicit a significant change in Isc”. For the same molecule, in the test with rat ileal tissues (10 nM PK1, […], n=33 tissues from 22 rats), the “increase in Isc from baseline” value was 13.5±2. μA/cm^2. For the same molecule, the “increase in Isc from baseline” value with rat ileal tissues (100 nM PK1, […], n=42 tissues from 29 rats) is 28.7±2.9 μA/cm^2. Further, in the test on rat ileal tissues ([…]), the “concentration at which the maximal PK1-evoked response occurred” value is listed as 100 nM and the “effect on tissue conductance (G)” value is on record as “no significant effect”. In addition, in the test on rat ileal tissues (basolateral addition, […]), the “time for Isc to decline back toward baseline” value is 10 to 15 min and the “time to peak Isc after single-dose addition” value was 2 to 4 min. In addition, the “pro-secretory effect in the presence of Atropine” value with rat ileal tissues (blockade of muscarinic receptors) was “not blocked”. The “pro-secretory effect in the presence of Tetrodotoxin (TTX)” value in the test on rat ileal tissues (nerve conduction toxin present) is on record as “not blocked”.
